Activity calls are given as the source filed them.
Tests used:
[1] = biological target: cGMP-dependent protein kinase 1 (Homo sapiens, UniProt Q13976); format: functional;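 further: value from a kinome panel screen with PRKG1 as the panel member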
[2] = biological target: Calcium/calmodulin-dependent protein kinase kinase 2 (Homo sapiens, UniProt Q96RR4); experiment: Navigating the Kinome. Panel member name: CAMKK2; format: functional
[3] = biological target: Serine/threonine-protein kinase D2 (Homo sapiens, UniProt Q9BZL6); format: functional;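 further: measured against PRKD2 as one member of a kinome-wide kinase profiling panel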
Chain of Serine/threonine-protein kinase D2 (Q9BZL6 whole entry, canonical isoform): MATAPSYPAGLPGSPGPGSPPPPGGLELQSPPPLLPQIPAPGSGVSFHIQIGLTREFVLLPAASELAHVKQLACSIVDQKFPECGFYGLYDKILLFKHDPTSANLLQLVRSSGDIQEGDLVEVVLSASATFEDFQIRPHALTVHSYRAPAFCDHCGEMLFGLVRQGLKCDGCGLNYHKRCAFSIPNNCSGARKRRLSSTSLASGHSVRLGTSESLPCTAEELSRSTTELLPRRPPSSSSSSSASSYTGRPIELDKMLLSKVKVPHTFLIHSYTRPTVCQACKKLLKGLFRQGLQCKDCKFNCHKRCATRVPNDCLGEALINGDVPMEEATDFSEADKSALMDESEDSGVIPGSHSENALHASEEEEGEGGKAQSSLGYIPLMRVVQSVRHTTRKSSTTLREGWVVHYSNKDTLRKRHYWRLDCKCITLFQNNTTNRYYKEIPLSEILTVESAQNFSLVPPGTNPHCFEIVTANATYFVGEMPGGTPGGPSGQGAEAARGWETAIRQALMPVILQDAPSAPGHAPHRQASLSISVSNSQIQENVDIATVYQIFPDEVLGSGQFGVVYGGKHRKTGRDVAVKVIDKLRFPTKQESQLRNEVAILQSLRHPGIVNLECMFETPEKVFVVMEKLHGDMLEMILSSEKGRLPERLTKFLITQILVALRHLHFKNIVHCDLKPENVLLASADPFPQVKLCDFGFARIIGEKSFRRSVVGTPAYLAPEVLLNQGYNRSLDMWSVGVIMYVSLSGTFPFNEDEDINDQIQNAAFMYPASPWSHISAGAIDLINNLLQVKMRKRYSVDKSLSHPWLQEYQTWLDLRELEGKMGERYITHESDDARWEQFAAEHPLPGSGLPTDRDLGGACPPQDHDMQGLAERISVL

[4] = biological target: Casein kinase I isoform alpha (Homo sapiens, UniProt P48729); format: functional
Chain of Casein kinase I isoform alpha (P48729 whole entry, canonical isoform): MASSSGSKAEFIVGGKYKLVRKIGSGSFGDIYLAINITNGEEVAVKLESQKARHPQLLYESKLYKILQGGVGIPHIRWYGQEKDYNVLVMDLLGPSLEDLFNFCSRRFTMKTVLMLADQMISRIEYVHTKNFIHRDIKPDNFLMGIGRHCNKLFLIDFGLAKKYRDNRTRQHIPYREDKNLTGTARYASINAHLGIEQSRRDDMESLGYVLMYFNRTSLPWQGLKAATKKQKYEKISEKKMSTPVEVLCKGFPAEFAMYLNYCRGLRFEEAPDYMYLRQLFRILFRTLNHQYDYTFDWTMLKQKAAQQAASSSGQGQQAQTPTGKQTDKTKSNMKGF

[5] = biological target: Dual specificity tyrosine-phosphorylation-regulated kinase 1B (Homo sapiens, UniProt Q9Y463); experiment: Navigating the Kinome. Panel member name: DYRK1B; format: functional
Chain of Dual specificity tyrosine-phosphorylation-regulated kinase 1B (Q9Y463 whole entry): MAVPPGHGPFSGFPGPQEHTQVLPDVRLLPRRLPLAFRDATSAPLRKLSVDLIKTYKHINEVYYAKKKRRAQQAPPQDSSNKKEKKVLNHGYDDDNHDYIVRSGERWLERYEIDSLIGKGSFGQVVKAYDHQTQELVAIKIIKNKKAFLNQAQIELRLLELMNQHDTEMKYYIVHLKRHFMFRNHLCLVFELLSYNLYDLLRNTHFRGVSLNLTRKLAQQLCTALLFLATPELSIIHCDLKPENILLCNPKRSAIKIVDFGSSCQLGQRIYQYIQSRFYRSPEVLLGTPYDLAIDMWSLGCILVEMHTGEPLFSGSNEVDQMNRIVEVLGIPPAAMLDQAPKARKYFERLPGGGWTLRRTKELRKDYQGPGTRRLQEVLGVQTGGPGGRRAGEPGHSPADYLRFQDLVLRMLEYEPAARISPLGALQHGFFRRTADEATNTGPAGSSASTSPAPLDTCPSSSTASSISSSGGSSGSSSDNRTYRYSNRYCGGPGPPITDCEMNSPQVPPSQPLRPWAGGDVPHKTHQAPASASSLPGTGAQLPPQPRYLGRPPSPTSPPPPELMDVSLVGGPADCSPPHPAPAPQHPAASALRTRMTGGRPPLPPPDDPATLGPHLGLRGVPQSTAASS

[6] = biological target: Dual specificity tyrosine-phosphorylation-regulated kinase 4 (Homo sapiens, UniProt Q9NR20); format: functional
[7] = biological target: RAC-gamma serine/threonine-protein kinase (Homo sapiens, UniProt Q9Y243); format: functional
[8] = biological target: Cyclin-dependent kinase 9 (Homo sapiens, UniProt P50750); format: functional;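 further: value from the CDK9 entry of a kinome-spanning kinase panel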
Chain of Cyclin-dependent kinase 9 (P50750 whole entry): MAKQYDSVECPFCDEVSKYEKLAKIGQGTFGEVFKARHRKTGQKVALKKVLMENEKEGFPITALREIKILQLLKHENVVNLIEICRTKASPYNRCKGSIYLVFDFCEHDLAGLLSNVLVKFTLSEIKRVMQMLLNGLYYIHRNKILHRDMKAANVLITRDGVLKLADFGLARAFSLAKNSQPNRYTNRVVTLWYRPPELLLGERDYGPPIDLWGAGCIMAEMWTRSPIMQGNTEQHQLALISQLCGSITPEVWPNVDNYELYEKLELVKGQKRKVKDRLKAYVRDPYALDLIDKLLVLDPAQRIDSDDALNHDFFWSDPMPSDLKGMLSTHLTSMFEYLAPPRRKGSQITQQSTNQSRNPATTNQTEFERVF

[9] = biological target: Calcium/calmodulin-dependent protein kinase type II subunit beta (Homo sapiens, UniProt Q13554); format: functional
[10] = biological target: T1, cAMP-dependent protein kinase catalytic subunit PRKX (Homo sapiens, UniProt P51817); format: functional
T1 sequence (P51817 whole entry): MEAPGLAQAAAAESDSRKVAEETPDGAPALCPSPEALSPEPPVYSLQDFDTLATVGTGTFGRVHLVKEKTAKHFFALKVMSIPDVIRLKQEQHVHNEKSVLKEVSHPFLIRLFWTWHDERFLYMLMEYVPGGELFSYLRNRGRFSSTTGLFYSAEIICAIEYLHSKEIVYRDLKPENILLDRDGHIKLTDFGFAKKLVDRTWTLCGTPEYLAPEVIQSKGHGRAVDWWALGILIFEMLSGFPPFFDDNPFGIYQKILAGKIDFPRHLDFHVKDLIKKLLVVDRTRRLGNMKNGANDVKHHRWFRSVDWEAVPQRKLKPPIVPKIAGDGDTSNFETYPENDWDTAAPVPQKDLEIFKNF

[11] = biological target: MAP kinase-activated protein kinase 5 (Homo sapiens, UniProt Q8IW41); format: functional;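 further: measured as one member of a kinome panel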
[12] = biological target: Serine/threonine-protein kinase pim-3 (Homo sapiens, UniProt Q86V86); format: functional;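 further: value obtained as one member of a broad kinase panel profiling effort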
[13] = biological target: Casein kinase I isoform delta (Homo sapiens, UniProt P48730); format: functional;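 further: measured as one member (CSNK1D) of a kinome panel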
Chain of Casein kinase I isoform delta (P48730 whole entry, canonical isoform): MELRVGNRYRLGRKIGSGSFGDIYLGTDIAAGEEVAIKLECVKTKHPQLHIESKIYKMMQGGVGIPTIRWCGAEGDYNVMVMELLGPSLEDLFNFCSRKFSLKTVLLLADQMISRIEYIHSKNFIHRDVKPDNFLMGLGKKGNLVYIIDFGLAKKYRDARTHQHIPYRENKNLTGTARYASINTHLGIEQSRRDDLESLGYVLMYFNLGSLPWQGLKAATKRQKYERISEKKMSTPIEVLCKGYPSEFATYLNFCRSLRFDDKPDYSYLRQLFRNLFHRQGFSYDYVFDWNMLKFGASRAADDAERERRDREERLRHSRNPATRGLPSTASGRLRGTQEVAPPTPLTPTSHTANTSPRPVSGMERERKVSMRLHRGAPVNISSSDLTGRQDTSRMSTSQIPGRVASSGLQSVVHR

[14] = biological target: Homeodomain-interacting protein kinase 2 (Homo sapiens, UniProt Q9H2X6); format: functional;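 further: measured within a kinome-wide kinase profiling panel, HIPK2 being one panel member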
[15] = biological target: Mitogen-activated protein kinase 14 (Homo sapiens, UniProt Q16539); format: functional;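 further: part of a kinome-wide panel, MAPK14 entry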
[16] = biological target: RAC-alpha serine/threonine-protein kinase (Homo sapiens, UniProt P31749); format: functional;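 further: AKT1 affinity measured as one member of a kinome-wide kinase profiling panel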
Chain of RAC-alpha serine/threonine-protein kinase (P31749 whole entry): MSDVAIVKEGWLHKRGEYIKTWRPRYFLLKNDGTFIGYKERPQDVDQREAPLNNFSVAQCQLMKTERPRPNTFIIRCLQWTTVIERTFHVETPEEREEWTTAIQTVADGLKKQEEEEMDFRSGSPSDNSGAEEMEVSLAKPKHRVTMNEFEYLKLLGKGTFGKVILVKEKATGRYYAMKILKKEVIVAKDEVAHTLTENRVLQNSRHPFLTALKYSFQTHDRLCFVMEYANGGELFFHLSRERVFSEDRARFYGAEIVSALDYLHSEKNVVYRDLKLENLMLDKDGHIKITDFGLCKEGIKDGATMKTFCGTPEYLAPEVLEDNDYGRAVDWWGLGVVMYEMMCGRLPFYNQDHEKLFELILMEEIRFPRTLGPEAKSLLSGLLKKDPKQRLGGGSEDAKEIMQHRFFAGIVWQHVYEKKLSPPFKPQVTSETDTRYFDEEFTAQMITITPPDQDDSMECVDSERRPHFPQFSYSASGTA

[17] = biological target: Serine/threonine-protein kinase pim-1 (Homo sapiens, UniProt P11309); format: functional
[18] = biological target: Protein kinase C gamma type (Homo sapiens, UniProt P05129); format: functional
[19] = biological target: Protein kinase C iota type (Homo sapiens, UniProt P41743); format: functional;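 further: measured within a kinome-wide kinase panel, PRKCI as panel member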
[20] = biological target: Serine/threonine-protein kinase pim-2 (Homo sapiens, UniProt Q9P1W9); format: functional;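 further: value comes from a broad kinase panel profiling study in which PIM2 was one of the panel members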
Chain of Serine/threonine-protein kinase pim-2 (Q9P1W9 whole entry): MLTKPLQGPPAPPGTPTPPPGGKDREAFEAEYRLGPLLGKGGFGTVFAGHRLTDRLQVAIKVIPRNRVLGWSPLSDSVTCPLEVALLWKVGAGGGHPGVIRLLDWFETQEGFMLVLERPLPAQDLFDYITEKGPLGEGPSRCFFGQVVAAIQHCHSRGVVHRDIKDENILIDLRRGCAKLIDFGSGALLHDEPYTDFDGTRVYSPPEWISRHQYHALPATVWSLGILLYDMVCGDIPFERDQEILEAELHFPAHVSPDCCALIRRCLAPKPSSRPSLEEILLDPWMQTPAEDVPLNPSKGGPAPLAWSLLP

[21] = biological target: T2, High affinity choline transporter 1 (Homo sapiens, UniProt Q9GZV3); experiment: CHT inhibitors, dose response, cell-based, 5-point CRC, membrane potential dye (AID 504840); format: functional
T2 sequence (Q9GZV3 whole entry): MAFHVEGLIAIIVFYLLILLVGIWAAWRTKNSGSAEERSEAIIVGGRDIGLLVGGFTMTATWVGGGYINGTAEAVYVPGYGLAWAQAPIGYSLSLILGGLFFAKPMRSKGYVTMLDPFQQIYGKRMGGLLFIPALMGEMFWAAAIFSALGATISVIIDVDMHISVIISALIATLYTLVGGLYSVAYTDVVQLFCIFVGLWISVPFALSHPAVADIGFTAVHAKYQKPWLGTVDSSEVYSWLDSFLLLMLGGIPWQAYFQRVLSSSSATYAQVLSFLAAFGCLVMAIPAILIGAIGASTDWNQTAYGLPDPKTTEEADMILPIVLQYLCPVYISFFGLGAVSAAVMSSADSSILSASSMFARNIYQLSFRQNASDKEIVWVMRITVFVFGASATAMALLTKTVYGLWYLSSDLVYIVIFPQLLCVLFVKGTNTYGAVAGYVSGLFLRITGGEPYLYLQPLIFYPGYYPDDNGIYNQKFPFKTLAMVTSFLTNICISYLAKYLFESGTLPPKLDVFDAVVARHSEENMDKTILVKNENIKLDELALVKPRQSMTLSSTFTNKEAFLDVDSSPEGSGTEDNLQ

[22] = HepG2 cell cytotoxicity, dose response, cytotoxicity control for Shn3 inhibitor project, CellTiter-Glo, cherry-picked (AID 624134); format: functional, cell-based
CHO = experiment: cytotoxicity in TLR9-MyD88 CHO cells, dose response, cytotoxicity control for TLR9-MyD88 binding inhibitor project, cell-based, luminescence (AID 588339); format: functional, hamster; settings: Cricetulus griseus;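 further: CHO cells stably coexpressing TLR9 and MyD88 fusions from primary screen; compound exposure lasted 48 hours before viability readout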
[23] = biological target: T3, Replicative DNA helicase DnaB (Mycobacterium tuberculosis, UniProt P9WMR3); experiment: DnaB intein splicing inhibitors, dose response, biochemical, cell-free fluorescence (AID 449749); format: functional
T3 sequence (P9WMR3 whole entry): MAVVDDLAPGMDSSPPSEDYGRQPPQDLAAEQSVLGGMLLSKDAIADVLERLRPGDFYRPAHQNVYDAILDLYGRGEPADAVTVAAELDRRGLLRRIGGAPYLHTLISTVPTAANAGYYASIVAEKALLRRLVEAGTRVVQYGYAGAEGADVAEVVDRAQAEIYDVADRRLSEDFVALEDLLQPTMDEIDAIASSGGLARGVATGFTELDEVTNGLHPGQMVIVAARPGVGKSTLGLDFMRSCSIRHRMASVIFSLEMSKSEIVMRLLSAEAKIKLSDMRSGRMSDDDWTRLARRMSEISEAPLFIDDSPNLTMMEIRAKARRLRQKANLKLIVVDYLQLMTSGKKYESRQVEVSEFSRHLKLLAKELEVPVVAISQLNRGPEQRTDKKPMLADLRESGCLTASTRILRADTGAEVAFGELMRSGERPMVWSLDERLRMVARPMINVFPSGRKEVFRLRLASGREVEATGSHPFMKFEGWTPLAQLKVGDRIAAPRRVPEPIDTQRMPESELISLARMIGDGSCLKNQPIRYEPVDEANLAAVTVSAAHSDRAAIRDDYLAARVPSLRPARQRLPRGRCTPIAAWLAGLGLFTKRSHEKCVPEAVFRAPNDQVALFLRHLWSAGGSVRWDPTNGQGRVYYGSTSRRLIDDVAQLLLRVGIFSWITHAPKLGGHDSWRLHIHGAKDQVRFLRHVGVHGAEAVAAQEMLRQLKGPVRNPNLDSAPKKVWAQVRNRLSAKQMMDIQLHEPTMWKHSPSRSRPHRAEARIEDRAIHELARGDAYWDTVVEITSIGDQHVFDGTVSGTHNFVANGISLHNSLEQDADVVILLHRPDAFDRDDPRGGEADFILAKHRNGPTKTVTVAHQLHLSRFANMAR

[24] = Shn3 3'UTR reporter inhibitors, dose response, cell-based, Clone20 osteoblasts, firefly luciferase, cherry-picked (AID 624132); format: functional;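 further: firefly luciferase luminescence from reporter carrying the Shn3 3'UTR in osteoblasts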
Beta Lactamase = Beta Lactamase (Pseudomonas aeruginosa, UniProt Q932Y6); experiment: beta-lactamase reporter inhibitor potency, dose response, artefact control for TLR9-MyD88 binding inhibitor project, BLA reporter cells, FRET fluorescence (AID 588341); format: cell-based;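 further: cell based assay in CHO-K1 cells stably expressing beta-lactamase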
Chain of Beta Lactamase (Q932Y6 whole entry): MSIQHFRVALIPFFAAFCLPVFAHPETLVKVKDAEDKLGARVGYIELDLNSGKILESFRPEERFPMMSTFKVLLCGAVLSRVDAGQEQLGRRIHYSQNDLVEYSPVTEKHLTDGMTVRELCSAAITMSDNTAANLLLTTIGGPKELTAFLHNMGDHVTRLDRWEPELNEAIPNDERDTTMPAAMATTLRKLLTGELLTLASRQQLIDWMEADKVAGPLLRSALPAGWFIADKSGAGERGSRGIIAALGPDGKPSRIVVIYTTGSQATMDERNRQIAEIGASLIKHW

Protein RecA = biological target: T4, Protein RecA (Mycobacterium tuberculosis, UniProt P9WHJ3); experiment: Fluorescence Cell-Free Homogeneous Dose Retest to Identify Inhibitors of RecA-Intein Splicing Activity. [Related pubchem assays (depositor defined):AID2097, AID2223, AID489010, AID492950]; format: functional
T4 sequence (P9WHJ3 whole entry): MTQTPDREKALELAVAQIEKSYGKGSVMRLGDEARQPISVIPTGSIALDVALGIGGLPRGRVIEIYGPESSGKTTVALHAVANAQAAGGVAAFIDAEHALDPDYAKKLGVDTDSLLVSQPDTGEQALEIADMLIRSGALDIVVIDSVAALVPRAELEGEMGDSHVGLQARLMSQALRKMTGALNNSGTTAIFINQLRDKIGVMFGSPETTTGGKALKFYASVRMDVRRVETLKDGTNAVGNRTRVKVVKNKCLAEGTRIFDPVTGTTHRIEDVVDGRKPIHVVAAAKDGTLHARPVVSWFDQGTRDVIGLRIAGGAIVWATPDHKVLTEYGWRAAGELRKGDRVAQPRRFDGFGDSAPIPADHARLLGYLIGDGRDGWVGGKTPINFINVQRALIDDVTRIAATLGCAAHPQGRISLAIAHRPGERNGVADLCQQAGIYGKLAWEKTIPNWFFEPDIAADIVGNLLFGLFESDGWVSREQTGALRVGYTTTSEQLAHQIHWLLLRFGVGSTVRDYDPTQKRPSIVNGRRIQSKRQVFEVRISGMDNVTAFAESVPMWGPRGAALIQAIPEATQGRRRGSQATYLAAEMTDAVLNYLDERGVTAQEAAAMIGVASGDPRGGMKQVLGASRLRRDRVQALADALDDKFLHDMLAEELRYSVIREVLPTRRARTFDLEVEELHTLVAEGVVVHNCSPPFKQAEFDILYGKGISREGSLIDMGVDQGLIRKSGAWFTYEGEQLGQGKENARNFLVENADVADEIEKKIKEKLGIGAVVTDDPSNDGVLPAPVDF

[25] = control 3'UTR Renilla luciferase suppression, dose response, counter-screen for Shn3 inhibitor project, cell-based, Clone20-Shn3RL, cherry-picked (AID 624133); format: functional
[26] = biological target: Melanin-concentrating hormone receptor 1 (Homo sapiens, UniProt Q99705); experiment: Late-stage fluorescence-based counterscreen for antagonists of the G-protein coupled receptor 7 (GPR7): cell-based dose response assay to identify antagonists of the melanin-concentrating hormone receptor 1 (MCHR1) Set 6.; format: functional
[27] = biological target: T5, Neuropeptides B/W receptor type 1 (Homo sapiens, UniProt P48145); experiment: GPR7 antagonist potency, late-stage follow-up, cell-based, fluorescence, dose response, set 6 (AID 588583); format: functional
T5 sequence (P48145 whole entry): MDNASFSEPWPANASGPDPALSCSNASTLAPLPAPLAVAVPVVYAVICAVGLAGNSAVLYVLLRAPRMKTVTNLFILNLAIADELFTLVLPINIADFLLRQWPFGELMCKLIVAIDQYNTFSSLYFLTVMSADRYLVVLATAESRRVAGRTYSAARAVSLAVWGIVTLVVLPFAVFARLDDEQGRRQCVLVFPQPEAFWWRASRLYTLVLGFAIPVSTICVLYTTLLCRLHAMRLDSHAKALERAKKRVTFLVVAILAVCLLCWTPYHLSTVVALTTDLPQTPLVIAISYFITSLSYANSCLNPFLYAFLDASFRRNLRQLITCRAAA

INS1 = experiment: inhibitors of cytokine-induced nitrite release, dose response, cell-based, Griess absorbance, INS-1E, dry powder, set 2 (AID 488868); format: functional; settings: Rattus norvegicus
[28] = biological target: T2, High affinity choline transporter 1; experiment: CHT activators, dose response, cell-based, 10-point CRC, membrane potential dye (AID 602376); format: functional

Chain of Calcium/calmodulin-dependent protein kinase kinase 2 (Q96RR4 whole entry): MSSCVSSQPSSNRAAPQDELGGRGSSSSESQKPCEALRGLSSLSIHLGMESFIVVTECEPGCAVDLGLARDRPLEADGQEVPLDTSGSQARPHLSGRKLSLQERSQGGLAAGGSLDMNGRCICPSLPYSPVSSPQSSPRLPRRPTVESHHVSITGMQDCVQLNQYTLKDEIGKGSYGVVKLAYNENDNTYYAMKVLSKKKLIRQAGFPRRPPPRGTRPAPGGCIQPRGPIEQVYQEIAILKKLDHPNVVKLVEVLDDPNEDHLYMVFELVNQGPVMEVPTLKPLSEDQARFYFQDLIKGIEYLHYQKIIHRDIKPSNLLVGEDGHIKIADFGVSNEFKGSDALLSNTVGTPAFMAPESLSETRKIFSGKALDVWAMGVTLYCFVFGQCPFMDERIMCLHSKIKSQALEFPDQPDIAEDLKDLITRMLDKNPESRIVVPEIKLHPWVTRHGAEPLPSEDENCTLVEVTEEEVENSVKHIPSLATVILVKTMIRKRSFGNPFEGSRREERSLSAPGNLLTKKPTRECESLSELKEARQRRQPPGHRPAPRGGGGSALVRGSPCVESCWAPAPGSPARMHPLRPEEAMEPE

COc1cc(Nc2ncc(F)c(Nc3ccc4c(n3)NC(=O)C(C)(C)O4)n2)cc(OC)c1OC [R-406]
Ki [1]: > 2 µM (inactive) | Ki [2]: > 2.51 µM (inactive) | Ki [3]: 0.631 µM (active) | Ki [4]: > 5.01 µM (inactive) | Ki [5]: > 2.51 µM (inactive) | Ki [6]: 1.58 µM (active) | Ki [7]: > 10 µM (inactive) | Ki [8]: > 1.58 µM (inactive) | Ki [9]: > 7.94 µM (inactive) | Ki [10]: > 2.51 µM (inactive) | Ki [11]: > 1.58 µM (inactive) | Ki [12]: 0.631 µM (active) | Ki [13]: > 7.94 µM (inactive) | Ki [14]: 0.2 µM (active) | Ki [15]: > 3.98 µM (inactive) | Ki [16]: > 7.94 µM (inactive) | Ki [17]: > 6.31 µM (inactive) | Ki [18]: 0.251 µM (active) | Ki [19]: > 5.01 µM (inactive) | Ki [20]: > 1.58 µM (inactive)

COc1cccc(NC(=O)c2nc(S(C)(=O)=O)ncc2Cl)c1
IC50 [21]: 14.5 µM (active) | AC50 [22]: 22 µM (active) | IC50 (CHO): 5.41 µM (active) | AC50 [23]: 0.111 µM (inconclusive) | AC50 [24]: 0.834 µM (active) | IC50 (Beta Lactamase): 8.9 µM (active) | EC50 (Protein RecA): 6.17 µM (active) | AC50 [25]: 11.5 µM (active)

N#CC(c1ccc(C(F)(F)F)cc1)c1c(Cl)cnn(Cc2cccc3ccccc23)c1=O (configuration not stated)
IC50 [26]: 0.699 µM (active) | IC50 [27]: 0.699 µM (active)

C[C@@H]1CN([C@@H](C)CO)C(=O)c2cccc(NC(=O)Nc3cccc4ccccc34)c2O[C@H]1CN(C)S(=O)(=O)c1ccccc1
AC50 (INS1): 36.1 µM (active)

COc1ccc(N2C(=O)/C(=C\c3ccco3)N=C2SCC(=O)N(C(C)C)C(C)C)cc1Cl
EC50 [28]: 17.6 µM (active)
